Measured values taken from patent publication US20220280493A1 (priority 2021, published 2022).

Tests used:
Covid-19, Omicron strain = assay: Treatment of "Break-Thru" Covid-19 infection in the same patient; type: in vivo, human
[1] = test system: nonrespiratory coronavirus unrelated to SARS-CoV-2; conditions: induced by a nonrespiratory coronavirus; cited from earlier work
"Long-Haul" Covid-19 = assay: Treatment of "Long-Haul" Covid-19 symptoms in the same patient; type: in vivo, human; conditions: for effect of added direct intranasal/lung inhalation: 0.1 ml of the 6% solution, 1-2 times/day
Procedure: After patient had discontinued treatment above for several weeks after the first round of disease, subsequent putative recurrent post-acute (“long-haul”) symptoms of Covid-19. These included malaise, fatigue, brain fog, myalgia and musculoskeletal pain, and shortness of breath. […] Treatment was titrated to a clinical response, with a maximum dose of 200 mg/day of Tempol. […] At two such interludes, in place of the Tempol, patient took 100 mg of phenylbutylnitrone (PBN).

For CC1(C)CC(O)CC(C)(C)N1[O] [Tempol, 4-hydroxy-TEMPO], the “time to alleviation of upper respiratory tract congestion” value (Covid-19, Omicron strain; inhalation of 20 mg, one 0.1 ml spritz of the 6% solution per nostril, followed by insufflation) is given as 5 to 10 min, the murine viral encephalomyelitis [1] is given as “ameliorates” and the “effect of added direct intranasal/lung inhalation” value ("Long-Haul" Covid-19) is given as “proved helpful”. For the same molecule, the “response of long-haul symptoms (malaise, fatigue, brain fog, myalgia and musculoskeletal pain, shortness of breath)” value ("Long-Haul" Covid-19; human, in vivo) was “responded reversibly” and the “symptoms on withdrawal and repeat treatment” value ("Long-Haul" Covid-19; treatment withdrawn, then repeated) was “Symptoms returned when the treatment was withdrawn, but responded to repeat treatment”.
With CC1(C)CC(O)CC(C)(C)N1O [Tempol-H, the hydroxylamine reduced form of the nitroxide 4-hydroxy-2,2,6,6-tetramethylpiperidin-1-yloxy] the “effect of added direct intranasal/lung inhalation” value ("Long-Haul" Covid-19) was “proved helpful”.
With CC(C)(C)[N+]([O-])=Cc1ccccc1 [PBN, 1-alpha-phenyl-tert-butyl nitrone] the “alleviation of upper respiratory symptoms, alternative intranasal treatments” value (Covid-19, Omicron strain; intranasal 3% gel (Q-tip) or insufflation of 0.2 ml of 3% solution, compared with 6% Tempol spray) was “effective but the response was slower”, the “long-haul symptoms, oral treatment in place of Tempol” value ("Long-Haul" Covid-19; 100 mg, at two interludes) was “some subjective clearing of symptoms” and the “long-haul symptoms, nasal/pulmonary inhalation” value ("Long-Haul" Covid-19; 0.1 ml of a 5% solution in water 3-4 times per day) was “significant symptomatic relief”.
